The values that follow come from article PMC8524809 (Molecular Therapy, 2021).

The nature of one data set: in vitro. Conditions: human.
The conditions of data set [1]: cited from earlier work.

In turn, `CC(C)(O)c1ccccc1CC[C@@H](SCC1(CC(=O)O)CC1)c1cccc(/C=C/c2ccc3ccc(Cl)cc3n2)c1` [montelukast] showed a viability in “in vitro” of 86 to 90%. Also, in data set [1] (all doses 10 mg/day to 200 mg/day, ref 23 (Altman et al.)), the “Side effects / tolerability” value is “no significant clinical or laboratory side effects”. For the same compound, the Toxicity tolerance result in data set [1] (high doses (i.e., 200 mg/day)) was “toxicity tolerance is high”.

One may read the viability as a per cent measure of how many cells are alive, often set against a control.
